# Like-named read-outs stand apart in the source and are kept apart here.
# Key:
# Type in all cases: cell-based
# [1] = target: T1, LAT1 (L-type amino acid transporter 1) (Mus musculus, UniProt Q9Z127); test: radiolabelled uptake kinetics (Km) in NSC-34 cells, with LAT1 siRNA knockdown
# T1 construct: gene Slc7a5; endogenous LAT1 in NSC-34 (hSOD1^WT) cells
# Source text: radiolabelled uptake kinetics (Km) in NSC-34 cells, with LAT1 siRNA knockdown on LAT1 (L-type amino acid transporter 1) | LAT1 mRNA expression and tryptophan uptake results indicated significant depletion effect in LAT1 siRNA-transfected WT and MT cell lines
# [2] = target: T2, LAT1 (L-type amino acid transporter 1) (Rattus norvegicus, UniProt Q63016); test: inhibition of [3H]L-tryptophan uptake in TR-BBB cells at […] ([…] of control); details: read-out: Relative Uptake / (% of Control)
# T2 construct: gene Slc7a5; endogenous LAT1 in TR-BBB cells
# T2 sequence (Q63016 whole entry): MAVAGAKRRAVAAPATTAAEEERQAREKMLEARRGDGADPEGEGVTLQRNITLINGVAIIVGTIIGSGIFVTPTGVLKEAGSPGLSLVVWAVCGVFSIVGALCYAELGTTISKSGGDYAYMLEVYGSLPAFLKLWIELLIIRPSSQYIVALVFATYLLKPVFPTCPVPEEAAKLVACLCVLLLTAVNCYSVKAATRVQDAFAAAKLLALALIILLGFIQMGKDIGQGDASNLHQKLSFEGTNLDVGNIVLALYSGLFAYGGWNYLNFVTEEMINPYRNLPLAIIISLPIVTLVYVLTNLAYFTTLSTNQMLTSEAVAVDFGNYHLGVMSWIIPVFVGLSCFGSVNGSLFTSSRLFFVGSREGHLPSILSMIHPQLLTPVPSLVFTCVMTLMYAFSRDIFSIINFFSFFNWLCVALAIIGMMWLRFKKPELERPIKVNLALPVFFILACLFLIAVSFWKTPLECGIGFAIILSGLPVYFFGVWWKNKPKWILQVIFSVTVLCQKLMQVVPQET
# [3] = target: T2, LAT1 (L-type amino acid transporter 1); test: competitive inhibition of [3H]L-tryptophan uptake in TR-BBB cells (Lineweaver-Burk)
# T1 sequence (Q9Z127 whole entry): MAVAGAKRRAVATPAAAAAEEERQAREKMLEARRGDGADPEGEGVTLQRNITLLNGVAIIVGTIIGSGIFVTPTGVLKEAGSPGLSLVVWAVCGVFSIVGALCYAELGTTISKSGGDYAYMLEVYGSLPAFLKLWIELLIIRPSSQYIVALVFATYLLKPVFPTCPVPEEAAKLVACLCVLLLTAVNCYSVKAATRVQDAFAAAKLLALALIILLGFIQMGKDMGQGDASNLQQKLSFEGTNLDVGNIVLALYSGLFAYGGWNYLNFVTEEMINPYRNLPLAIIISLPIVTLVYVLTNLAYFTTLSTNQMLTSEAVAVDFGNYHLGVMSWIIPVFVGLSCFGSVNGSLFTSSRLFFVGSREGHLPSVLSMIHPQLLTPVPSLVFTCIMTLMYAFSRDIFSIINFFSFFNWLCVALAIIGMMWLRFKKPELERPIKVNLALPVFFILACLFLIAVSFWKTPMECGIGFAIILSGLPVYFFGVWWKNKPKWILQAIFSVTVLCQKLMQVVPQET
smiles,measurement,setting,value
N[C@@H](Cc1c[nH]c2ccccc12)C(=O)O [L-tryptophan],Km,[1],33.1 ± 1.2 µM
NC1(C(=O)O)CC2CCC1C2 (stereo not shown) [BCH],remaining activity at 2000 µM,[2],21 ± 1.3%
NCC(CC(=O)O)c1ccc(Cl)cc1 (stereo not shown) [Baclofen],Ki,[3]; read-out: Ki,1620 µM
NCC1(CC(=O)O)CCCCC1 [Gabapentin],Ki,[3],210 µM

# From PMC7823355, “Pretreatment Effect of Inflammatory Stimuli and Characteristics of Tryptophan Transport on Brain Capillary Endothelial (TR-BBB) and Motor Neuron Like (NSC-34) Cell Lines” (Biomedicines, 2020)
